Laboratory results as given in patent US9756852B2, “Topical delivery formulation” (MERIAL INC., priority 2014, dated 2017).

How the values were obtained:
horn fly = assay: in-vivo efficacy studies A and B: pour-on formulations for control of horn fly on cows; parameters: species or system Haematobia irritans on cows; settings: 30% Tributyl acetyl citrate
Experimental: Although many different actives may work with the formulation of the invention, 1H-pyrazole-3-carbonitrile, 1-[2,6-dichloro-4-(trifluoromethyl)phenyl]-5-methyl-4-[(trifluoromethyl)sulfinyl] (i.e., ML465) is the compound used to test topical formulations for control of horn fly on cows for a duration of one month or longer.
(§1) In-vivo and in-vitro studies were conducted to compare wash-off resistance of formulations prepared with lipophilic solvents and with polymers.
It can be seen that the amount of ML465 washed off is at, or below, 10% of the applied dose, indicating a sharp decrease upon exposure to water. This was not sufficient to support thirty days efficacy duration. Thus, efficacy may depend on resistance of the solvent system to water exposure.

[1] = In-lab water resistance (% ML465 removed after water exposure); type: physicochemical; settings: for In-lab Water Resistance (% ML465 Removed after Water Exposure (n = 2)): 30% Tributyl acetyl citrate
Experimental: as §1
The in-vivo studies of Table 1 were followed with in-vitro studies conducted to assess water resistance of “conventional” solvent systems. Conventional pour-on solvent formulations described below were tested using ML465 as the active under exposure to water for 20 and 40 minutes.
Next, the water resistance of the inventive solvent systems was tested in vitro.

SMILES: Cc1c([S+]([O-])C(F)(F)F)c(C#N)nn1-c1c(Cl)cc(C(F)(F)F)cc1Cl (stereo not shown) [ML465, 1H-pyrazole-3-carbonitrile, 1-[2,6-dichloro-4-(trifluoromethyl)phenyl]-5-methyl-4-[(trifluoromethyl)sulfinyl]]
- Duration of above 90% efficacy (horn fly; study A, 3.0% w/v ML465, Miglyol 840): 17 days
- Duration of above 90% efficacy (horn fly; study B, 0.5% w/v ML465, 5% Polypropylene Glycol (15) stearyl ether, Soybean Oil): 17 days
- Duration of above 90% efficacy (horn fly; study B, 1.0% w/v ML465, 3% Polypropylene Glycol (15) stearyl ether, 8.5% Isopropyl palmitate, 7% Isobutene H25, Soybean Oil): 17 days
- Duration of above 90% efficacy (horn fly; study B, 1.0% w/v ML465, 3% Polypropylene Glycol (15) stearyl ether, 10% Isopropyl palmitate, 7% cetearyl octanoate, 10% butyl stearate, Soybean Oil): 24 days
- In-lab Water Resistance (% ML465 Removed after Water Exposure (n = 2)) ([1]; 20 min, 5% PPG-15 stearyl ether, 6% Isobutene H25, Soybean Oil): 5.2%
- In-lab Water Resistance (% ML465 Removed after Water Exposure (n = 2)) ([1]; 20 min, 5% PPG-15 stearyl ether, 10% Isopropyl palmitate, 10% ceteary octanote, 10% butyl stearate, Soybean Oil): 8.8%
- In-lab Water Resistance (% ML465 Removed after Water Exposure (n = 2)) ([1]; 20 min, 5% PPG-15 stearyl ether, Soybean oil): 7.5%
- In-lab Water Resistance (% ML465 Removed after Water Exposure (n = 2)) ([1]; 20 min, Miglyol 840): 2.4%
- In-lab Water Resistance (% ML465 Removed after Water Exposure (n = 2)) ([1]; 40 min, 5% PPG-15 stearyl ether, 6% Isobutene H25, Soybean Oil): 7.3%
- In-lab Water Resistance (% ML465 Removed after Water Exposure (n = 2)) ([1]; 40 min, 5% PPG-15 stearyl ether, 10% Isopropyl palmitate, 10% ceteary octanote, 10% butyl stearate, Soybean Oil): 9.2%
- In-lab Water Resistance (% ML465 Removed after Water Exposure (n = 2)) ([1]; 40 min, 5% PPG-15 stearyl ether, Soybean oil): 10.1%
- In-lab Water Resistance (% ML465 Removed after Water Exposure (n = 2)) ([1]; 40 min, Miglyol 840): 5.2%
- amount of ML465 washed off, % of the applied dose ([1]; traditional formulations of trials A and B, exposure to water): ≤ 10%
